{"source": "patent US20150011508A1", "about": "“COMPOUNDS AND COMPOSITIONS AS C-KIT KINASE INHIBITORS” (priority 2011, published 2015)", "note": "pIC50: −log10 of the molar value."}
{"target": "T1, c-kit (Homo sapiens, UniProt P10721)", "T1 construct": "human Mo7e cells which endogenously express c-kit; endogenous in cells; host or cells: human Mo7e cells (SCF-dependent promegakaryocytic leukemia line)", "T1 sequence (P10721 26-976)": "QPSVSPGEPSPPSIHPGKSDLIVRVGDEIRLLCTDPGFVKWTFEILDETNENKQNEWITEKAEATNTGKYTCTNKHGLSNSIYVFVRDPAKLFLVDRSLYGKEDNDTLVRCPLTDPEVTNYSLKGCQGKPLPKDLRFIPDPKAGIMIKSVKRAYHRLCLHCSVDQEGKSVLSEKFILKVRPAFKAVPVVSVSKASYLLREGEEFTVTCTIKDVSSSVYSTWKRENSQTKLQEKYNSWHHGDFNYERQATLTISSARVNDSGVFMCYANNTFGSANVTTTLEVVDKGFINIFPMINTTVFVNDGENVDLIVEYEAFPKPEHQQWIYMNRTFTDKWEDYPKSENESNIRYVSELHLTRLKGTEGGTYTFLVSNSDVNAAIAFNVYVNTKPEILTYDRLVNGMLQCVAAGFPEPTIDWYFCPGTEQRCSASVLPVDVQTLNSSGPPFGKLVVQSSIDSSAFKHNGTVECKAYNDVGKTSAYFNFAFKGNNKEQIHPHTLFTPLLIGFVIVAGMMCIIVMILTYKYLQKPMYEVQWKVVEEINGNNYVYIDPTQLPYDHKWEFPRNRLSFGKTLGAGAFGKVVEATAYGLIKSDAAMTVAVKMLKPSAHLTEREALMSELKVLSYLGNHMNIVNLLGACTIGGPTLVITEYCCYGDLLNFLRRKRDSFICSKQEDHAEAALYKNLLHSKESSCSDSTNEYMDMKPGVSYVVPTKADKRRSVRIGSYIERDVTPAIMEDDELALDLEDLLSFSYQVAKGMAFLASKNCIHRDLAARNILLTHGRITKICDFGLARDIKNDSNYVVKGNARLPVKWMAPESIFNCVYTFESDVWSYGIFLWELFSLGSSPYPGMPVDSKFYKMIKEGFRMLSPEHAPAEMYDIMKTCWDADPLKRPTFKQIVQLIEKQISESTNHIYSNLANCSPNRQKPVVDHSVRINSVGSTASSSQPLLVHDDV", "test": "Mo7e cell proliferation assay (SCF dependent proliferation)", "format": "cell-based", "conditions": "Table 1; human Mo7e cells stimulated with human recombinant SCF, 48 h, CellTiter Glo; 1% FBS (footnote)", "procedure": "(§1) Compounds of Formula (I) and Formula (II) provided herein were assayed to measure their capacity to inhibit c-kit and PDGFR kinases using the appropriate assay described below: c-Kit inhibition was evaluated using the Mo7e cell proliferation assay, and PDGFR inhibition was evaluated using the Rat A10 cell proliferation assay and the Human TGHA-VSMC cell proliferation assay.\n(§2) The compounds of Table 1 and Table 2 were tested for inhibition of SCF dependent proliferation using human Mo7e cells which endogenously express c-kit in a 384 well format. […] After 48 hours of incubation at 37° C., cell viability was measured by adding 25 uL of CellTiter Glo (Promega) to the cells and the luminescence was measured by a CLIPR CCD camera (Molecular Devices).\n(§3) The IC50 value is given as that concentration of the test compound in question that provoke a response halfway between the baseline and maximum responses."}
{"compound": "Cc1nc(-c2ccc(C)c(NC(=O)c3cnc4ccc(-c5cccnc5F)cn34)c2)no1", "note": "[F92]", "pIC50": 7.80}
{"compound": "[2H]c1c([2H])c([2H])n2c(C(=O)Nc3cc(-c4noc(CCC(C)(O)C(F)(F)F)n4)ccc3C)cnc2c1[2H]", "note": "(stereo not shown) [F73]", "pIC50": 7.60}
{"compound": "COCCOCc1nc(-c2ccc(C)c(NC(=O)c3cnc4ccc(F)cn34)c2)no1", "note": "[F37]", "pIC50": 7.04}
{"compound": "Cc1ccc(-c2noc(CNC(=O)CC(F)(F)F)n2)cc1NC(=O)c1cnc2ccccn12", "note": "[F35]", "pIC50": 7.37}
{"compound": "COc1ccc2ncc(C(=O)Nc3cc(-c4noc(CCC(C)(C)O)n4)ccc3C)n2c1", "note": "[F56]", "pIC50": 7.15}
{"compound": "(S)-1,1,1-trifluoro-2-methyl-4-(3-(4-methyl-3-(7-methylimidazo[1,2-a]pyridine-3-carboxamido)phenyl)-1,2,4-oxadiazol-5-yl)butan-2-yl dihydrouen phosphate [F268]", "pIC50": 7.59}
{"compound": "Cc1ccc(-c2noc(CC[C@@](C)(O)C(F)(F)F)n2)cc1NC(=O)c1cnc2ccc(F)cn12", "note": "[F88]", "pIC50": 7.38}
{"compound": "Cc1nc(-c2ccc(C)c(NC(=O)c3cnc4ccc(-c5cnn(CCN6CCOCC6)c5)cn34)c2)no1", "note": "[F51]", "pIC50": 7.02}
{"compound": "Cc1nc(-c2ccc(C)c(NC(=O)c3cnc4ccc(-c5cnn(CC(C)(C)O)c5)cn34)c2)no1", "note": "[F45]", "pIC50": 7.62}
{"compound": "CNC(=O)Cn1nc(C)c(-c2ccc3ncc(C(=O)Nc4cc(-c5noc(C)n5)ccc4C)n3c2)c1C", "note": "[F260, 6-(3,5-dimethyl-1-(2-(methylamino)-2-oxoethyl)-1H-pyrazol-4-yl)-N-(2-methyl-5-(5-methyl-1,2,4-oxadiazol-3-yl)phenyl)imidazo[1,2-a]pyridine-3-carboxamide]", "pIC50": 7.49}
{"compound": "Cc1nc(-c2ccc(C)c(NC(=O)c3cnc4ccc(-c5cn[nH]c5)cn34)c2)no1", "note": "[F43]", "pIC50": 7.34}
{"compound": "Cc1ccc(-c2noc(CCC#N)n2)cc1NC(=O)c1cnc2ccccn12", "note": "[F1]", "pIC50": 7.11}
{"compound": "Cc1ccn2c(C(=O)Nc3cc(-c4noc(CCC(O)C(F)(F)F)n4)ccc3C)cnc2c1", "note": "(stereo not shown) [F253]", "pIC50": 7.89}
{"compound": "Cc1ccn2c(C(=O)Nc3cc(-c4noc(CCC(O)C(F)(F)F)n4)ccc3C)cnc2c1", "note": "(stereo not shown) [F98]", "pIC50": 7.74}
{"compound": "Cc1ccn2c(C(=O)Nc3cc(-c4noc(CCC(C)(C)O)n4)ccc3C)cnc2c1", "note": "[F50, N-(5-(5-(3-hydroxy-3-methylbutyl)-1,2,4-oxadiazol-3-yl)-2-methylphenyl)-7-methylimidazo[1,2-a]pyridine-3-carboxamide]", "pIC50": 7.28}
{"compound": "Cc1nc(-c2ccc(C)c(NC(=O)c3cnc4ccc(-c5scnc5C)cn34)c2)no1", "note": "[F97]", "pIC50": 7.42}
{"compound": "Cc1nc(-c2ccc(C)c(NC(=O)c3cnc4ccc(-c5nc(C)c(C(N)=O)s5)cn34)c2)no1", "note": "[F259, 4-methyl-2-(3-((2-methyl-5-(5-methyl-1,2,4-oxadiazol-3-yl)phenyl)carbamoyl)imidazo[1,2-a]pyridin-6-yl)thiazole-5-carboxamide]", "pIC50": 7.05}
{"compound": "Cc1ccc(-c2noc(CCC(C)(C)O)n2)cc1NC(=O)c1cnc2cc(-c3cnn(C)c3)ccn12", "note": "[F63]", "pIC50": 8.15}
{"compound": "Cc1ccc(-c2noc(CCC(C)(O)C(F)(F)F)n2)cc1NC(=O)c1cnc2ccc(F)cn12", "note": "(stereo not shown) [F71]", "pIC50": 7.27}
{"compound": "Cc1ccc(-c2noc(COCC(F)(F)F)n2)cc1NC(=O)c1cnc2ccccn12", "note": "[F39]", "pIC50": 8.10}
{"compound": "Cc1nc(-c2ccc(C)c(NC(=O)c3cnc4ccc(-c5cnn(C)c5)cn34)c2)no1", "note": "[F44]", "pIC50": 7.60}
{"compound": "CO[C@H](C)c1nc(-c2ccc(C)c(NC(=O)c3cnc4ccccn34)c2)no1", "note": "[F14]", "pIC50": 7.00}
{"compound": "Cc1nc(-c2ccc(C)c(NC(=O)c3cnc4ccc(-c5sc(C(=O)NCCN6CCOCC6)nc5C)cn34)c2)no1", "note": "[F262, 4-methyl-5-(3-((2-methyl-5-(5-methyl-1,2,4-oxadiazol-3-yl)phenyl)carbamoyl)imidazo[1,2-a]pyridin-6-yl)-N-(2-morpholinoethyl)thiazole-2-carboxamide]", "pIC50": 7.12}
{"compound": "Cc1nc(-c2ccc(C)c(NC(=O)c3cnc4ccccn34)c2)no1", "note": "[F11]", "pIC50": 7.07}
{"compound": "Cc1nc(-c2ccc(C)c(NC(=O)c3cnc4ccc(-c5c(C)nn(CCN6CCOCC6)c5C)cn34)c2)no1", "note": "[F106, 6-(3,5-dimethyl-1-(2-morpholinoethyl)-1H-pyrazol-4-yl)-N-(2-methyl-5-(5-methyl-1,2,4-oxadiazol-3-yl)phenyl)imidazo[1,2-a]pyridine-3-carboxamide]", "pIC50": 7.62}
{"compound": "CCOCCc1nc(-c2ccc(C)c(NC(=O)c3cnc4ccccn34)c2)no1", "note": "[F10]", "pIC50": 7.38}
{"compound": "COCCCc1nc(-c2ccc(C)c(NC(=O)c3cnc4ccccn34)c2)no1", "note": "[F3]", "pIC50": 7.36}
{"compound": "Cc1nc(-c2ccc(C)c(NC(=O)c3cnc4ccc(-c5cscn5)cn34)c2)no1", "note": "[F47]", "pIC50": 7.30}
{"compound": "CNC(=O)c1ccc(-c2ccc3ncc(C(=O)Nc4cc(-c5noc(C)n5)ccc4C)n3c2)cn1", "note": "[F93]", "pIC50": 7.17}
{"compound": "Cc1ccc(-c2noc(CCC(C)(C)O)n2)cc1NC(=O)c1cnc2cc(-c3ccn(C)n3)ccn12", "note": "[F42]", "pIC50": 8.05}
{"compound": "Cc1ccc(-c2noc(CCC(C)(C)O)n2)cc1NC(=O)c1cnc2ccccn12", "note": "[F8, N-(5-(5-(3-hydroxy-3-methylbutyl)-1,2,4-oxadiazol-3-yl)-2-methylphenyl)imidazo[1,2-a]pyridine-3-carboxamide]", "pIC50": 7.20}
{"target": "T1, c-kit", "test": "Mo7e cell proliferation assay (SCF dependent proliferation)", "format": "cell-based", "conditions": "Table 2, values marked *: 20% FBS instead of 1% FBS", "procedure": "as §1, §2, §3"}
{"compound": "COCc1noc(-c2ccc(C)c(NC(=O)c3cnc4ccccn34)c2)n1", "note": "[F108]", "pIC50": 6.15}
{"target": "T1, c-kit", "test": "Mo7e cell proliferation assay (SCF dependent proliferation)", "format": "cell-based", "conditions": "Table 2; human Mo7e cells stimulated with human recombinant SCF, 48 h, CellTiter Glo; 1% FBS (footnote)", "procedure": "as §1, §2, §3"}
{"compound": "Cc1ccc(-c2noc(CNC(=O)CC(C)(C)O)n2)cc1NC(=O)c1cnc2ccccn12", "note": "[F223]", "pIC50": 5.84}
{"compound": "Cc1ccc(-c2noc([C@@H](C)NC(=O)OC(C)(C)C)n2)cc1NC(=O)c1cnc2ccccn12", "note": "[F126]", "pIC50": 6.99}
{"compound": "Cc1ccc(-c2noc(CNS(C)(=O)=O)n2)cc1NC(=O)c1cnc2ccccn12", "note": "[F129]", "pIC50": 6.91}
{"compound": "COC(=O)N[C@H](C)Cc1nc(-c2ccc(C)c(NC(=O)c3cnc4ccccn34)c2)no1", "note": "[F150]", "pIC50": 6.71}
{"compound": "Cc1ccc(-c2noc(CCCN)n2)cc1NC(=O)c1cnc2ccccn12", "note": "[F112]", "pIC50": 6.76}
{"compound": "Cc1nc(-c2ccc(C)c(NC(=O)c3cnc4ccc(-c5nc(C)c(C(=O)NCCN6CCOCC6)s5)cn34)c2)no1", "note": "[F245]", "pIC50": 6.92}
{"compound": "COC(=O)NCCc1nc(-c2ccc(C)c(NC(=O)c3cnc4ccccn34)c2)no1", "note": "[F122]", "pIC50": 6.49}
{"compound": "Cc1ccc(-c2noc(C(C)(C)NS(C)(=O)=O)n2)cc1NC(=O)c1cnc2ccccn12", "note": "[F147]", "pIC50": 6.34}
{"compound": "Cc1ccc(-c2noc(C[C@@H](C)N)n2)cc1NC(=O)c1cnc2ccccn12", "note": "[F219]", "pIC50": 5.93}
{"compound": "Cc1ccc(Nc2noc(C(C)C)n2)cc1NC(=O)c1cnc2ccccn12", "note": "[F174]", "pIC50": 6.55}
{"compound": "Cc1ccc(-c2noc(COCCOCC(F)(F)F)n2)cc1NC(=O)c1cnc2ccc(F)cn12", "note": "[F175]", "pIC50": 6.98}
{"compound": "Cc1ccc(-c2noc(C(C)(C)NC(=O)OC(C)(C)C)n2)cc1NC(=O)c1cnc2ccccn12", "note": "[F143]", "pIC50": 6.70}
{"compound": "Cc1nc(-c2ccc(C)c(NC(=O)c3cnc4ccc(CCC(C)(C)O)cn34)c2)no1", "note": "[F181]", "pIC50": 6.54}
{"compound": "COCCOCc1nc(-c2cc(NC(=O)c3cnc4ccccn34)c(C)cc2F)no1", "note": "[F155]", "pIC50": 6.40}
{"compound": "COCCCc1nc(-c2ccc(F)c(NC(=O)c3cnc4ccccn34)c2)no1", "note": "[F139]", "pIC50": 6.40}
{"compound": "COC(=O)NCc1nc(-c2ccc(C)c(NC(=O)c3cnc4ccc(C)cn34)c2)no1", "note": "[F204]", "pIC50": 6.80}
{"compound": "COC(=O)NCc1nc(-c2ccc(C)c(NC(=O)c3cnc4cc(CCC(=O)O)ccn34)c2)no1", "note": "[F232]", "pIC50": "< 5.00"}
{"compound": "Cc1ccc(-c2noc([C@H](C)N)n2)cc1NC(=O)c1cnc2ccccn12", "note": "[F125]", "pIC50": 6.05}
{"compound": "Cc1ccc(-c2nc(C(C)C)no2)cc1NC(=O)c1cnc2ccccn12", "note": "[F107]", "pIC50": 6.92}
{"compound": "Cc1nc(-c2ccc(C)c(NC(=O)c3cnc4ccc(-c5nc(C)c(C)s5)cn34)c2)no1", "note": "[F237]", "pIC50": 6.74}
{"compound": "Cc1ccc(-c2noc(CCC(C)(C)O)n2)cc1NC(=O)c1cnc2ccc(CCN3CCOCC3)cn12", "note": "[F184]", "pIC50": 6.80}
{"compound": "COCC(=O)NCc1nc(-c2ccc(C)c(NC(=O)c3cnc4ccccn34)c2)no1", "note": "[F132]", "pIC50": 6.50}
{"compound": "O=C(Nc1cc(-c2noc(CC(O)(C(F)(F)F)C(F)(F)F)n2)ccc1F)c1cnc2ccccn12", "note": "[F153]", "pIC50": 6.61}
{"compound": "Cc1nc(-c2ccc(C)c(NC(=O)c3cnc4ccc(-c5ccnn5C)cn34)c2)no1", "note": "[F208]", "pIC50": 6.64}
{"compound": "Cc1ccc(-c2noc(CNC(=O)CCO)n2)cc1NC(=O)c1cnc2ccccn12", "note": "[F224]", "pIC50": 5.83}
{"compound": "COC(=O)NCc1nc(-c2ccc(C)c(NC(=O)c3cnc4ccccn34)c2)no1", "note": "[F128]", "pIC50": 6.95}
{"compound": "CCNCc1nc(-c2ccc(C)c(NC(=O)c3cnc4ccccn34)c2)no1", "note": "[F145]", "pIC50": 6.66}
{"compound": "CCN(CC)C(=O)Cc1nc(-c2ccc(C)c(NC(=O)c3cnc4ccccn34)c2)no1", "note": "[F210]", "pIC50": 6.37}
{"compound": "Cc1ccc(-c2noc(C(C)O)n2)cc1NC(=O)c1cnc2ccccn12", "note": "(stereo not shown) [F198]", "pIC50": 6.59}
{"compound": "Cc1nc(-c2ccc(C)c(NC(=O)c3cnc4ccc(C5CC5)cn34)c2)no1", "note": "[F203]", "pIC50": 6.84}
{"compound": "CC(=O)NCc1nc(-c2ccc(C)c(NC(=O)c3cnc4ccccn34)c2)no1", "note": "[F141]", "pIC50": 6.06}
{"compound": "COC(=O)NCc1nc(-c2ccc(C)c(NC(=O)c3cnc4cc(CCC(C)(C)O)ccn34)c2)no1", "note": "[F178]", "pIC50": 6.55}
{"compound": "Cc1nc(-c2ccc(C)c(NC(=O)c3cnc4ccc(-c5sc(C(=O)O)nc5C)cn34)c2)no1", "note": "[F247]", "pIC50": 6.47}
{"compound": "COCCOCc1nc(-c2ccc(C)c(NC(=O)c3cnc4ccc(OC)cn34)c2)no1", "note": "[F188]", "pIC50": 6.99}
{"compound": "Cc1ccc2ncc(C(=O)Nc3cc(-c4noc(NCC(C)(C)O)n4)ccc3C)n2c1", "note": "[F193]", "pIC50": 6.78}
